The text below walks through data of BindingDB's records for patent US20250002452 (Icagen, 2025).

The assay concerns the target Potassium voltage-gated channel subfamily KQT member 2 (Homo sapiens, UniProt O43526). Description: SyncroPatch 384 (Nanion) High Throughput Electrophysiology Assay. An excerpt: Solutions were of the following composition:Earle's balanced salt solution (in mM): 135 NaCl, 5.4 KCl, 5 Glucose, 2 CaCl2), 1 MgCl2, 5 HEPES, pH 7.4. Seal enhancer solution (in mM): 90 NaCl, 3 KCl, 35 CaCl2), 10 MgCl2, 10 HEPES, pH 7.4. Extracellular recording solution (in mM): 71 NaCl, 70 NMDG, 13 KCl, 5 Glucose, 2 CaCl2), 1 MgCl2, 10 HEPES, pH 7.4. Intracellular recording solution (in mM): 130 KF, 20 KCl, 4 EGTA, 10 HEPES, 2 EDTA, 0.01 Escin, pH 7.2.
For orientation: Patch clamp records ionic current or voltage across a cell membrane.

Potassium voltage-gated channel subfamily KQT member 2, sequence (O43526 whole entry): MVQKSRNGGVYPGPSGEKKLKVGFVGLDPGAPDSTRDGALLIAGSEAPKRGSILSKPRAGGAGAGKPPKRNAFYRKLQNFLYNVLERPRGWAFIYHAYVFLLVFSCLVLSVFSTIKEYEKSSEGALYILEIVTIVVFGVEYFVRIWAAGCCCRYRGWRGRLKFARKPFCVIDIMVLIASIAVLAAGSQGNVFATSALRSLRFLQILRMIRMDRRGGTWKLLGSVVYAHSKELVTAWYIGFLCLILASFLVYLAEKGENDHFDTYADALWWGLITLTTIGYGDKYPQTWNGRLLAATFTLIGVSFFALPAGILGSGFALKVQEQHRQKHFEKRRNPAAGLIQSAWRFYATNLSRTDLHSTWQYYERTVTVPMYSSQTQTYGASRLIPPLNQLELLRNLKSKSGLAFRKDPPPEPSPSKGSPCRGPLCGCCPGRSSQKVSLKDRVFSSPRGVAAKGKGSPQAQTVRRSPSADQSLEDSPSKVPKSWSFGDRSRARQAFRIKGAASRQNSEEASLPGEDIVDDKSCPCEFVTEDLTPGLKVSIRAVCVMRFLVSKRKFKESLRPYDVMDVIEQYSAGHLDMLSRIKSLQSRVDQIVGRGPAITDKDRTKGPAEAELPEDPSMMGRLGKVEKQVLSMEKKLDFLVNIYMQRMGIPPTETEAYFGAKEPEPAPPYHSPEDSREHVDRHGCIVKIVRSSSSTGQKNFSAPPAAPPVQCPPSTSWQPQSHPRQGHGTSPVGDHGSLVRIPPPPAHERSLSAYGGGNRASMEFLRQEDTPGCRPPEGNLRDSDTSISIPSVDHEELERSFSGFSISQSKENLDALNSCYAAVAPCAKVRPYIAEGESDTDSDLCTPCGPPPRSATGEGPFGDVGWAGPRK

`CC(NC(=O)NC12CC(F)(C1)C2)c1cccc(OC(F)F)c1` (stereo unspecified) [US20250002452, Example 38] returned a concentration for a half-maximal effect (EC50) of 180 nM.

As a reminder, the EC50 is the concentration giving half of the maximal effect. Lower therefore signals an effect from little substance.
